This assay deals with T1, Recombinant human EP300 containing the bromodomain (EP300-BD (1040-1161)) (Homo sapiens, UniProt Q09472).
T1 construct: Recombinant human EP300 bromodomain (EP300-BD (1040-1161)); made in house; host or cells: E. coli BL21-CodonPlus (DE3), modified pET vector
T1 sequence (Q09472 1040-1161): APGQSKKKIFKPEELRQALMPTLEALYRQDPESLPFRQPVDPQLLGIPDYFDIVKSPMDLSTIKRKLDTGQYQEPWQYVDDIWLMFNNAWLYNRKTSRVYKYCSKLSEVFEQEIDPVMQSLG
Briefly: EP300 Alphascreen binding assay. The protocol: EP300 Alphascreen Binding Assay
Binding of compounds of Formula (I) with EP300 was assessed using Alphascreen™ binding assay. The inhibition of the interaction between the EP300 bromodomain and its acetylated target protein was measured quantitatively using recombinant EP300 protein, an acetylated Histone 3 peptide and AlphaScreen™ technology. In absence of inhibition of the EP300 protein bound to AlphaScreen™ nickel chelate acceptor beads can interact with the acetylated Histone 3 peptide which is immobilized by the AlphaScreen™ Streptavidin coated beads. This interaction brings donor and acceptor beads in proximity. The close proximity allows the singlet oxygen produced by laser excitation of the donor beads to reach the acceptor beads and generate a luminescence signal. EP300 inhibitors result in a decrease in the proximity signal through an inhibition of the EP300—acetylated peptide interaction.
Recombinant human EP300 containing the bromodomain (EP300-BD (1040-1161)) was prepared and purified as described in protein expression and purification session. The peptide is human Histone H345-64K56Ac-Biotin (Anaspec CA, USA).
Protocol for EP300 assay: All components were prepared in buffer composed of 50 mM HEPES pH 7.5, 50 mM NaCl, 0.01% BSA, 0.01% Triton X-100, 2 mM DTT. Test compounds and DMSO vehicle were diluted 1:50 in buffer and a 4 μL volume is transferred to an Alphaplate. 5.5 μL of EP300 protein and 5.5 μL of peptide were added to wells containing 4 μL of various concentrations of test compounds of Formula (I) or DMSO vehicle in an Alphaplate (PerkinElmer GA, USA) and incubated for 1 hour at room temperature. 5 μL donor and acceptor bead mixture was then added with final concentrations of 7.5 μg/ml. 60 minutes after bead addition, Alpha signal is read on the Envision spectrometer (λEx 680 nm, λEm 520-620 nm). Final concentrations of bromodomain proteins and peptide are as shown below.
All data were normalized to the mean of 16 high and 16 low control wells on each plate. A four parameter curve fit of the following formula was then applied: Y=A+((B−A)/(1+((C/x)^D))) Where ‘A’ is the minimum, ‘B’ is the maximum, ‘C’ is the IC50 and ‘D’ is the Hill slope. Protein Expression and Purification
Recombinant human EP300 bromodomain (EP300-BD (1040-1161)) was expressed in E. coli cells (in a modified pET vector) with an N-terminal six-His tag and purified using a combination of both IMAC (Ni-affinity) and size exclusion chromatography steps.
Recombinant EP300 protein was expressed using the E. coli strain BL21-CodonPlus (DE3) (Agilent Technologies CA, USA). Cells were grown in Terrific Broth (TB) media to an OD600 of 0.7 at 37° C. at which temperature was reduced to 18° C., protein was induced with 1.0 mM isopropyl-β-D-thiogalactopyranoside (“IPTG”) for 20 hours and harvested by centrifugation at 8500×g for 20 minutes. Cells were re-suspended in 0.1M K2PO4 pH 8.0, 250 mM NaCl, 10% Glycerol, 0.75% NP-40, 25 mM Imidazole, with 0.2 mg/ml Lysozyme, 0.2 mM phenylmethanesulfonyl fluoride (“PMSF”), 25 μg/ml DNase I, incubated on ice for 30 minutes and lysed with a cell disruptor (MicroFluidics MA, USA). The lysate was clarified by centrifugation at 20,000×g for 1 hour. The protein was captured with Ni-NTA resin (Life Technologies, USA). Contaminating proteins were washed off with 50 mM HEPES pH 7.5, 500 mM NaCl, and 5% Glycerol. Following 3× wash steps, protein was eluted step wise using 10, 25, 50, 100, 150, and 250 mM Imidazole in 50 mM HEPES pH 7.5, 500 mM NaCl, and 5% glycerol. The protein was further purified using a size exclusion column (26/600 Superdex 200, GE Biosciences NJ, USA) in 10 mM HEPES pH 7.5, […].
Background: Alpha assays give light when donor and acceptor beads are brought close together.

Structures are written as SMILES.

For orientation: IC50 means the concentration needed to halve the response being measured.

Consider `CCCOc1cc(C(=O)O)ccc1-c1cn([C@@H](C)c2ccccn2)c2ncc(-c3c(C)noc3C)cc12` [P-0113, (S)-4-(5-(3,5-dimethylisoxazol-4-yl)-1-(1-(pyridin-2-yl)ethyl)-1H-pyrrolo[2,3-b]pyridin-3-yl)-3-propoxybenzoic acid], for which the IC50 is 0.0001 to 1 µM. For `CCOc1cc(C(=O)O)ccc1-c1cn([C@@H](C)c2ccccn2)c2ncc(-c3c(C)noc3C)cc12` [P-0114, (S)-4-(5-(3,5-dimethylisoxazol-4-yl)-1-(1-(pyridin-2-yl)ethyl)-1H-pyrrolo[2,3-b]pyridin-3-yl)-3-ethoxybenzoic acid] the value was 0.0001 to 1 µM; for `Cc1noc(C)c1-c1cnc2c(c1)c(-c1ccc(C(=O)O)cc1OCC(F)(F)F)cn2[C@@H](C)c1ccccn1` [P-0115, (S)-4-(5-(3,5-dimethylisoxazol-4-yl)-1-(1-(pyridin-2-yl)ethyl)-1H-pyrrolo[2,3-b]pyridin-3-yl)-3-(2,2,2-trifluoroethoxy)benzoic acid], 0.0001 to 1 µM.

Regarding `Cc1noc(C)c1-c1cnc2c(c1)c(-c1ccc(C(=O)O)cc1C(F)(F)F)cn2[C@@H](C)c1ccccn1` [P-0116, (S)-4-(5-(3,5-dimethylisoxazol-4-yl)-1-(1-(pyridin-2-yl)ethyl)-1H-pyrrolo[2,3-b]pyridin-3-yl)-3-(trifluoromethyl)benzoic acid], the half-inhibitory concentration (IC50) was 0.0001 to 1 µM. Turning to `CCCOc1cc(C(=O)O)cc(OCCC)c1-c1cn([C@@H](C)c2ccccn2)c2ncc(-c3c(C)noc3C)cc12` [P-0117, (S)-4-(5-(3,5-dimethylisoxazol-4-yl)-1-(1-(pyridin-2-yl)ethyl)-1H-pyrrolo[2,3-b]pyridin-3-yl)-3,5-dipropoxybenzoic acid], the 50% inhibitory concentration (IC50) lay within 0.0001 to 1 µM. As to `Cc1noc(C)c1-c1cnc2c(c1)c(-c1c(OC(C)C)cc(C(=O)O)cc1OC(C)C)cn2[C@@H](C)c1ccccn1` [P-0118, (S)-4-(5-(3,5-dimethylisoxazol-4-yl)-1-(1-(pyridin-2-yl)ethyl)-1H-pyrrolo[2,3-b]pyridin-3-yl)-3,5-diisopropoxybenzoic acid], the IC50 lay in the range of 0.0001 to 1 µM. As for `COc1cc(C(=O)O)cc(OC)c1-c1cn(C(C)c2ccccc2)c2cc(-c3c(C)noc3C)cnc12` (stereo not shown) [P-0119, 4-(6-(3,5-dimethylisoxazol-4-yl)-1-(1-phenylethyl)-1H-pyrrolo[3,2-b]pyridin-3-yl)-3,5-dimethoxybenzoic acid], the concentration for half-maximal inhibition (IC50) lay within 0.0001 to 1 µM. On to `Cc1noc(C)c1-c1cnc2c(-c3ccccc3C(=O)O)cn(C(C)c3ccccc3)c2c1` (stereo not shown) [P-0120, 2-(6-(3,5-dimethylisoxazol-4-yl)-1-(1-phenylethyl)-1H-pyrrolo[3,2-b]pyridin-3-yl)benzoic acid], for which the IC50 lay in the range of 0.0001 to 1 µM.

`Cc1noc(C)c1-c1cnc2c(C(=O)C3CCC3)cn(-c3c(Cl)cc(C(=O)O)cc3Cl)c2c1` [P-0121, 3,5-dichloro-4-(3-(cyclobutanecarbonyl)-6-(3,5-dimethylisoxazol-4-yl)-1H-pyrrolo[3,2-b]pyridin-1-yl)benzoic acid]: the 50% inhibitory concentration (IC50) lay within 0.0001 to 1 µM. For `Cc1noc(C)c1-c1cnc2c(c1)c(-c1cccc(C(=O)O)n1)cn2C(C)c1ccccn1` (stereo not shown) [P-0122, 6-(5-(3,5-dimethylisoxazol-4-yl)-1-(1-(pyridin-2-yl)ethyl)-1H-pyrrolo[2,3-b]pyridin-3-yl)picolinic acid] the value was 1 to 8 µM; for `Cc1noc(C)c1-c1cnc2c(c1)c(-c1ccc(C(=O)O)cn1)cn2C(C)c1ccccn1` (stereo not shown) [P-0123, 6-(5-(3,5-dimethylisoxazol-4-yl)-1-(1-(pyridin-2-yl)ethyl)-1H-pyrrolo[2,3-b]pyridin-3-yl)nicotinic acid], 0.0001 to 1 µM. The same measure for `Cc1noc(C)c1-c1cnc2c(c1)c(-c1cc(C(=O)O)ccn1)cn2C(C)c1ccccn1` (stereo not shown) [P-0124, 2-(5-(3,5-dimethylisoxazol-4-yl)-1-(1-(pyridin-2-yl)ethyl)-1H-pyrrolo[2,3-b]pyridin-3-yl)isonicotinic acid]: 0.0001 to 1 µM; for `Cc1noc(C)c1-c1cnc2c(c1)c(-c1ccc(F)c(C(=O)O)c1F)cn2[C@@H](C)c1ccccn1` [P-0125, (S)-3-(5-(3,5-dimethylisoxazol-4-yl)-1-(1-(pyridin-2-yl)ethyl)-1H-pyrrolo[2,3-b]pyridin-3-yl)-2,6-difluorobenzoic acid]: 0.0001 to 1 µM.

`Cc1noc(C)c1-c1cnc2c(c1)c(-c1ccnc(C(=O)O)n1)cn2C(C)c1ccccn1` (stereo not shown) [P-0126, 4-(5-(3,5-dimethylisoxazol-4-yl)-1-(1-(pyridin-2-yl)ethyl)-1H-pyrrolo[2,3-b]pyridin-3-yl)pyrimidine-2-carboxylic acid]: the IC50 fell in the range of 0.0001 to 1 µM. For the compound `CCCOc1cc(C(=O)O)cc(OCCC)c1-n1cc(CC2CCC2)c2ncc(-c3c(C)noc3C)cc21` [P-0127, 4-(3-(cyclobutylmethyl)-6-(3,5-dimethylisoxazol-4-yl)-1H-pyrrolo[3,2-b]pyridin-1-yl)-3,5-dipropoxybenzoic acid], the concentration for half-maximal inhibition (IC50) is 0.0001 to 1 µM. The same measure for `Cc1noc(C)c1-c1cnc2c(Cc3cccc(Cl)c3)cn(-c3c(Cl)cc(C(=O)O)cc3Cl)c2c1` [P-0128, 3,5-dichloro-4-(3-(3-chlorobenzyl)-6-(3,5-dimethylisoxazol-4-yl)-1H-pyrrolo[3,2-b]pyridin-1-yl)benzoic acid]: 0.0001 to 1 µM; for `Cc1noc(C)c1-c1cnc2c(C(=O)c3cccc(OC(F)F)c3)cn(-c3c(Cl)cc(C(=O)O)cc3Cl)c2c1` [P-0129, 3,5-dichloro-4-(3-(3-(difluoromethoxy)benzoyl)-6-(3,5-dimethylisoxazol-4-yl)-1H-pyrrolo[3,2-b]pyridin-1-yl)benzoic acid]: 0.0001 to 1 µM.

As to `Cc1noc(C)c1-c1cnc2c(CC3CCC3)cn(-c3ccc([N+](=O)[O-])cc3F)c2c1` [P-0130, 4-(3-(cyclobutylmethyl)-1-(2-fluoro-4-nitrophenyl)-1H-pyrrolo[3,2-b]pyridin-6-yl)-3,5-dimethylisoxazole], the IC50 was 8 to 1000 µM. Regarding `Cc1noc(C)c1-c1cnc2c(Cc3ccccc3Cl)cn(-c3c(Cl)cc(C(=O)O)cc3Cl)c2c1` [P-0131, 3,5-dichloro-4-(3-(2-chlorobenzyl)-6-(3,5-dimethylisoxazol-4-yl)-1H-pyrrolo[3,2-b]pyridin-1-yl)benzoic acid], the IC50 fell in the range of 0.0001 to 1 µM. Consider `Cc1noc(C)c1-c1cnc2c(Cc3cccc(OCc4ccccc4)c3)cn(-c3c(Cl)cc(C(=O)O)cc3Cl)c2c1` [P-0132, 4-(3-(3-(benzyloxy)benzyl)-6-(3,5-dimethylisoxazol-4-yl)-1H-pyrrolo[3,2-b]pyridin-1-yl)-3,5-dichlorobenzoic acid], for which the IC50 lay within 0.0001 to 1 µM. For `Cc1noc(C)c1-c1cnc2c(C(=O)c3cccc(OCc4ccccc4)c3)cn(-c3c(Cl)cc(C(=O)O)cc3Cl)c2c1` [P-0133, 4-(3-(3-(benzyloxy)benzoyl)-6-(3,5-dimethylisoxazol-4-yl)-1H-pyrrolo[3,2-b]pyridin-1-yl)-3,5-dichlorobenzoic acid] the value was 0.0001 to 1 µM; for `COc1ccc(-n2cc(CC3CCC3)c3ncc(-c4c(C)noc4C)cc32)cn1` [P-0134, 4-(3-(cyclobutylmethyl)-1-(6-methoxypyridin-3-yl)-1H-pyrrolo[3,2-b]pyridin-6-yl)-3,5-dimethylisoxazole], 1 to 8 µM.

These data come from US11446287B2, “Compounds and methods for EP300 or CBP modulation and indications therefor” (Opna Immuno-Oncology SA, priority 2019, dated 2022).
